Several values for one entry are separate records, joined by “and”; a condition that tells them apart may be missing. Identical values can stand only once.
What was measured:
[1] = system: carrageenan induced rat paw oedema; test: rat carrageenan-induced foot paw oedema model; format: in vivo; conditions: 2 h after carrageenan; for Mean % increase in paw weight ± SEM: control group 165.6 ± 1.6; for % Inhibition of paw oedema from control group: single dose screen (Table 1)
Procedure: Anti-inflammatory assessment of the newly synthesised compounds was carried out using an in vivo rat carrageenan-induced foot paw oedema model, as reported previously[16]^,[17].

COX-1 = target: T1, COX-1 (Ovis aries, UniProt P05979); test: colorimetric COX (ovine) inhibitor screening assay kit; format: biochemical; conditions: ovine COX-1, mean of two determinations
T1 construct: purchased Cayman Chemicals Inc., Ann Arbour, MI
T1 sequence (P05979 25-600): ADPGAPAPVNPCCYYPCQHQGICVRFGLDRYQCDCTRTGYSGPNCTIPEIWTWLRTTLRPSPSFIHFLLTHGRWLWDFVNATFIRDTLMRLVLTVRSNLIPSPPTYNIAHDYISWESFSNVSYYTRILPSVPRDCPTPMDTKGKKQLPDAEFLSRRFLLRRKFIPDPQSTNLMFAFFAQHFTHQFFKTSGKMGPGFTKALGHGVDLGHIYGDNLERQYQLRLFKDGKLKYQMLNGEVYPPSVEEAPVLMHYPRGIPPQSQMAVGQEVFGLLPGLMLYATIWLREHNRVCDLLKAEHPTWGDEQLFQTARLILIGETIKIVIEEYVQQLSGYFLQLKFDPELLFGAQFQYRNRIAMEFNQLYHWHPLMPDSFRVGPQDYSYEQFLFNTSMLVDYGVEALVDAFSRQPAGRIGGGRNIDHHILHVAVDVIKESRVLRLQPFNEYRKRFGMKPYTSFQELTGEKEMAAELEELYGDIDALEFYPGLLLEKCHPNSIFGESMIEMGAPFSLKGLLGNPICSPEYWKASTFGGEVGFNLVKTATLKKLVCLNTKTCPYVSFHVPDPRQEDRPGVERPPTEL
Excerpt: (§1) To determine the relative ability of the test compounds and reference drugs to inhibit COX-1/COX-2 isozymes, we used the colorimetric COX (ovine) inhibitor screening assay kit (Cayman Chemicals Inc., Ann Arbour, MI), according to the manufacturer’s instructions[3]^,[10]^,[11]^,[20].

COX-2 = target: T2, COX-2 (Ovis aries, UniProt P79208); test: as above; format: biochemical; conditions: for SI, selectivity index (COX-1 IC50/COX-2 IC50): ovine COX-1/COX-2; for IC50: ovine COX-2, mean of two determinations
T2 construct: purchased Cayman Chemicals Inc., Ann Arbour, MI
T2 sequence (P79208 17-603): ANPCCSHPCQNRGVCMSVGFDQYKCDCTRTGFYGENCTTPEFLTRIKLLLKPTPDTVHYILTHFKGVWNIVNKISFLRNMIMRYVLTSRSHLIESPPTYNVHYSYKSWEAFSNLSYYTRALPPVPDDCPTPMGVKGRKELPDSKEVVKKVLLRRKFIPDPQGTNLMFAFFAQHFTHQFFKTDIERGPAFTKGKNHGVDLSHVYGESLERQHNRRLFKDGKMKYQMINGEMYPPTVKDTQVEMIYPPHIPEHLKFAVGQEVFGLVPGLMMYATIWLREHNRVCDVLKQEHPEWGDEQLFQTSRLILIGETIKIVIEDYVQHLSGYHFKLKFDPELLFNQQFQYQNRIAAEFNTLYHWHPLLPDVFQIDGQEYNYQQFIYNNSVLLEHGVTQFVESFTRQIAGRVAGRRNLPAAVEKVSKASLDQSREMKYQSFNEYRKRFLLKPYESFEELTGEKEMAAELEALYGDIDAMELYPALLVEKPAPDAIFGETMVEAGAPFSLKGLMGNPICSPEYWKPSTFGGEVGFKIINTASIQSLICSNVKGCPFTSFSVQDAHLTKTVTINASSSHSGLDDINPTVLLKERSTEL
Excerpt: as §1

mice = test: Ulcerogenicity measurement; format: in vivo; conditions: mice
Procedure: Ulcerogenicity was evaluated according to a previously reported method[6]^a,[17]^,[18]. The number and total length of the ulcers for each animal were measured and their averages were calculated and used as the ulcer indices.

C/C(=N/O)c1ccc(N2C(=O)c3c(Cl)c(Cl)c(Cl)c(Cl)c3C2=O)cc1 [Compound 17]
Mean % increase in paw weight ± SEM [1]: 135.6 ± 0.8% | % Inhibition of paw oedema from control group [1]: 25.1% and 25.1 ± 0.6%

CC(=NO)c1ccc(N2C(=O)c3cccc4cccc(c34)C2=O)cc1 [Compound 19, 2-(4-(1-(Hydroxyimino)ethyl)phenyl)-1H-benzo[de]isoquinoline-1,3(2H)-dione]
Mean % increase in paw weight ± SEM [1]: 57.6 ± 0.5% | % Inhibition of paw oedema from control group [1]: 68.8% and 68.8 ± 0.4% | IC50 (COX-1): > 50 µM | SI, selectivity index (COX-1 IC50/COX-2 IC50) (COX-2): >178.6 | IC50 (COX-2): 0.28 µM | melting point: > 300 °C

O=C(O)CC(c1ccccc1)N1C(=O)C2CC=CCC2C1=O (stereo not drawn) [Compound 22]
Mean % increase in paw weight ± SEM [1]: 69.1 ± 0.5% | % Inhibition of paw oedema from control group [1]: 62.9 ± 0.4% | IC50 (COX-1): 11.6 µM | SI, selectivity index (COX-1 IC50/COX-2 IC50) (COX-2): 0.46 | IC50 (COX-2): 25.1 µM

O=C(O)CC(c1ccccc1)N1C(=O)c2ccccc2C1=O (stereo not drawn) [Compound 23]
Mean % increase in paw weight ± SEM [1]: 65.6 ± 0.3% | % Inhibition of paw oedema from control group [1]: 64.4% and 64.4 ± 0.7% | IC50 (COX-1): 10.9 µM | SI, selectivity index (COX-1 IC50/COX-2 IC50) (COX-2): 0.49 | IC50 (COX-2): 22.3 µM

Cc1ccc2c(c1)C(=O)N(C(CC(=O)O)c1ccccc1)C2=O (stereo not drawn) [Compound 24]
Mean % increase in paw weight ± SEM [1]: 123.4 ± 0.9% | % Inhibition of paw oedema from control group [1]: 33.1 ± 0.4% | IC50 (COX-1): 24.8 µM | SI, selectivity index (COX-1 IC50/COX-2 IC50) (COX-2): 0.68 | IC50 (COX-2): 36.3 µM

CC(C)(C)c1ccc2c(c1)C(=O)N(C(CC(=O)O)c1ccccc1)C2=O (stereo not drawn) [Compound 25, 3-(5-(tert-Butyl)-1,3-dioxoisoindolin-2-yl)-3-phenylpropanoic acid]
Mean % increase in paw weight ± SEM [1]: 129.0 ± 1.1% | % Inhibition of paw oedema from control group [1]: 29.6 ± 0.7% | melting point: 119 to 121 °C

O=C(O)CC(c1ccccc1)N1C(=O)c2cc(Cl)c(Cl)cc2C1=O (stereo not drawn) [Compound 26, 3-(5,6-Dichloro-1,3-dioxoisoindolin-2-yl)-3-phenylpropanoic acid]
Mean % increase in paw weight ± SEM [1]: 136.3 ± 0.8% | % Inhibition of paw oedema from control group [1]: 24.4 ± 0.3% | melting point: 205 to 207 °C

O=C(O)CC(c1ccccc1)N1C(=O)c2c(Cl)c(Cl)c(Cl)c(Cl)c2C1=O (stereo not drawn) [Compound 27, 3-Phenyl-3-(4,5,6,7-tetrachloro-1,3-dioxoisoindolin-2-yl)propanoic acid]
Mean % increase in paw weight ± SEM [1]: 141.6 ± 1.0% | % Inhibition of paw oedema from control group [1]: 21.2 ± 0.9% | melting point: 280 to 282 °C

O=C(O)CC(c1ccccc1)N1C(=O)c2cccc3cccc(c23)C1=O (stereo not drawn) [Compound 29, 3-(1,3-Dioxo-1H-benzo[de]isoquinolin-2(3H)-yl)-3-phenylpropanoic acid]
Mean % increase in paw weight ± SEM [1]: 130.8 ± 0.7% | % Inhibition of paw oedema from control group [1]: 27.0% and 27.0 ± 0.1% | melting point: 151 to 153 °C

O=C(O)Cc1ccccc1Nc1c(Cl)cccc1Cl [Diclofenac, reference compound]
Mean % increase in paw weight ± SEM [1]: 30.1 ± 0.3% | % Inhibition of paw oedema from control group [1]: 83.4% and 83.4 ± 0.5% | Average number of ulcers (mice): 10 | Mean sum of lengths of elongated ulcer (mice; ± SEM): 7.6 ± 0.89 mm
